Test results taken from patent publication US20110257211A1, “Small-Molecule Choline Kinase Inhibitors as Anti-Cancer Therapeutics” (ADVANCED CANCER THERAPEUTICS, LLC, priority 2010, published 2011).
Like-named read-outs stand apart in the source and are kept apart here.

Assays:
[1] = biological target: T1, Choline Kinase α (CKα) (Homo sapiens, UniProt P35790); experiment: Inhibition of Choline Kinase α, kinase activity assay; assay type: biochemical; conditions: recombinant CKα expressed in E. coli
T1 construct: GST; made in house; host or cells: E. coli BL21(DE3)
Method: CKα was prepared by expression in E. coli (Bl21(DE3)) and purified by GST column and column chromatography. […] The recombinant protein was pure and active as determined by the results of a kinase activity assay.

[2] = tested on: NCI-H82; experiment: Inhibition of cancer cell proliferation, Alamar Blue assay (NCI-H82); assay type: cell-based; conditions: Homo sapiens
Method: (§1) The ability of the compounds described herein to kill or inhibit the proliferation of cancer cells was measured using the Alamar Blue assay using a 72 hours exposure. Results for different cancer cell lines are shown in, the Table 2 below (hematopoietic cell lines U937 and K562; MDA-MB-231 a breast cancer cell line; and NCI-H82 and Calu-6, two lung cancer cell lines): […]

[3] = tested on: Calu-6; experiment: Inhibition of cancer cell proliferation, Alamar Blue assay (Calu-6); assay type: cell-based; conditions: Homo sapiens
Method: as §1

[4] = tested on: Colo-205; experiment: Inhibition of cell proliferation (Colo-205); assay type: cell-based; conditions: Homo sapiens, Table 2B, Colorectal, average, read-out: IC50 Aver, Colo-205
[5] = tested on: Hep G2; experiment: Inhibition of cell proliferation (Hep G2); assay type: cell-based; conditions: Homo sapiens, HepG2; Table 2B; Liver; average; read-out: IC50 Aver, Hep G2
[6] = tested on: K562; experiment: Inhibition of cancer cell proliferation, Alamar Blue assay (K562); assay type: cell-based; conditions: Homo sapiens
Method: as §1

[7] = tested on: HCT-116; experiment: Inhibition of cell proliferation (HCT-116); assay type: cell-based; conditions: Homo sapiens, Table 2B, Colon, average, read-out: IC50 Aver, HCT-116
[8] = tested on: DU145; experiment: Inhibition of cell proliferation (DU145); assay type: cell-based; conditions: Homo sapiens, DU-145; Table 2B; Prostate; average; read-out: IC50 Aver, DU145
[9] = tested on: H209; experiment: Inhibition of cell proliferation (H209); assay type: cell-based; conditions: Homo sapiens, NCI-H209; Table 2B; Lung; average; read-out: IC50 Aver, H209
[10] = tested on: Hela; experiment: Inhibition of cell proliferation (Hela); assay type: cell-based; conditions: Homo sapiens, Table 2B, Cervical, average, read-out: IC50 Aver, Hela
[11] = tested on: U937; experiment: Inhibition of cancer cell proliferation, Alamar Blue assay (U937); assay type: cell-based; conditions: Homo sapiens, U-937
Method: as §1

[12] = tested on: A431; experiment: Inhibition of cell proliferation (A431); assay type: cell-based; conditions: Homo sapiens, A-431; Table 2B; epidermi; average; read-out: IC50 Aver, A431
[13] = tested on: Caco2 cells; experiment: Permeability in Caco2 cells; assay type: in vitro ADME; conditions: Caco2
Source text: (§2) The determination of the permeability in Caco2 cells is widely used in screening compounds to assess intestinal drug transport and predict absorption rates.

[14] = Permeability in Caco2 cells; assay type: in vitro ADME; conditions: human, Caco-2, Caco2 cells
Source text: as §2

[15] = tested on: NCI-H2122; experiment: Inhibition of cell proliferation (NCI-H2122); assay type: cell-based; conditions: Homo sapiens, Table 2B, Lung, average, read-out: IC50 Aver, NCI-H2122
[16] = tested on: Jurkat; experiment: Inhibition of cell proliferation (Jurkat); assay type: cell-based; conditions: Homo sapiens, Table 2B, Leukemia, average, read-out: IC50 Aver, Jurkat
[17] = Pharmacokinetics in Balbc mice; assay type: in vivo; conditions: Balbc male mice, IV or IP, 5 mg/kg or 10 mg/kg, 5% DMSO/90% Captisol solution
Method: The pharmacokinetic parameters for several compounds listed above were determined in mice following IV (intravenous) or IP (intraperitoneal) administration. Briefly, six Balbc male mice 7 to 8 weeks old were used for each study. A dose of 5 mg/kg or 10 mg/kg was administered using a 5% DMSO/90% Captisol (20% in water) solution for ACT-CK-050 or FFF for ACT-CK-154. Blood samples were collected at different intervals. Plasma samples were extracted and analyzed using an LC-MS/MS method. Results are represented in FIGS. 1 and 2.

[18] = Microsomal stability in human liver microsomes; assay type: in vitro ADME
Source text: Microsomal stability in vitro in different biologic media and species is ascertained when screening compounds to evaluate the rate at which a compound undergoes metabolism.

[19] = tested on: MKN-45; experiment: Inhibition of cell proliferation (MKN-45); assay type: cell-based; conditions: Homo sapiens, Table 2B, Gastric, average, read-out: IC50 Aver, MKN-45
[20] = tested on: MDA-MB-231; experiment: Inhibition of cancer cell proliferation, Alamar Blue assay (MDA-MB-231); assay type: cell-based; conditions: Homo sapiens
Method: as §1

[21] = tested on: PC3; experiment: Inhibition of cell proliferation (PC3); assay type: cell-based; conditions: Homo sapiens, PC-3; Table 2B; Prostate; average; read-out: IC50 Aver, PC3
[22] = tested on: HT-29; experiment: Inhibition of cell proliferation (HT-29); assay type: cell-based; conditions: Homo sapiens, Table 2B, Colon, average, read-out: IC50 Aver, HT-29
[23] = comparison of A-B and B-A values

T1 sequence (P35790 whole entry): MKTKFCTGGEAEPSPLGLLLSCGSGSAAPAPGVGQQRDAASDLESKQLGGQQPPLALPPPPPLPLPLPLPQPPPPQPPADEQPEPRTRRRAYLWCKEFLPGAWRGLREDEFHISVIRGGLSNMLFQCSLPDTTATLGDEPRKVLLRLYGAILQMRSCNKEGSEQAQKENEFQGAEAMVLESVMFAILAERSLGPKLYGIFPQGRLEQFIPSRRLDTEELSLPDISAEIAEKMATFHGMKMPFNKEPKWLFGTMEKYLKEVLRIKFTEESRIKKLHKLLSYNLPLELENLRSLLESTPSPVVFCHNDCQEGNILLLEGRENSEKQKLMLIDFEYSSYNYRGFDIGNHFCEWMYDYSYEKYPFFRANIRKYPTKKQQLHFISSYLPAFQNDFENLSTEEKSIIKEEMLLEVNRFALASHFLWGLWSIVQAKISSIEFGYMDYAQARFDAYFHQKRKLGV

Work on CCOc1ccc(-c2nnc(SCC(=O)Nc3cc(OC)cc(OC)c3)[nH]2)cc1 [ACT-CK-109, N-(3,5-Dimethoxy-phenyl)-2-[5-(4-ethoxy-phenyl)-4H-[1,2,4]triazol-3-ylsulfanyl]-acetamide] yielded an IC50 [1] of 18000 nM.

For CCOc1ccc(-c2nnc(SCC(=O)Nc3cc(C)cc(C)c3)[nH]2)cc1 [ACT-CK-050, N-(3,5-Dimethyl-phenyl)-2-[5-(4-ethoxy-phenyl)-4H-[1,2,4]triazol-3-ylsulfanyl]-acetamide], the IC50 ([2]; Table 2A, Alamar Blue, 72 hours exposure, read-out: IC50s NCI-H82) was 90 nM, the IC50 ([2]; Table 2B, Lung, average, read-out: IC50 Aver, NCI-H82) was 96 nM and the IC50 ([3]; Table 2A, Alamar Blue, 72 hours exposure, read-out: IC50s Calu-6) was 60 nM. It also gave an IC50 ([3]; Table 2B, Lung, average, read-out: IC50 Aver, Calu-6) of 57 nM, an IC50 [4] of 240 nM and an IC50 [5] of 163 nM. It also gave an IC50 ([6]; Table 2A, Alamar Blue, 72 hours exposure, read-out: IC50s K562) of 40 nM, an IC50 ([6]; Table 2B, Leukemia, average, read-out: IC50 Aver, K562) of 43 nM and an IC50 [7] of 523 nM. It also gave an IC50 [1] of 20000 nM, an IC50 [8] of 597 nM and an IC50 [9] of 367 nM. For the same molecule, the IC50 [10] was 22 nM, the IC50 ([11]; Table 2A, Alamar Blue, 72 hours exposure, read-out: IC50s U937) was 60 nM and the IC50 ([11]; Table 2B, lymphoma, average, read-out: IC50 Aver, U937) was 63 nM. The IC50 [12] was 117 nM, the “Pgp substrate (in words)” value [13, 23] was “not a Pgp substrate” and the “active efflux (in words)” value [13, 23] was “not actively effluxed out the cells”. For the same molecule, the “permeability properties (in words)” value ([13]; high permeability determined as Papp>10×10^−6 cm/s) was “high permeability”, the Papp A→B ([14]; apical to basal) was 46.1 ×10⁻⁶ cm/s and the Papp B→A ([14]; basal to apical) was 16.2 ×10⁻⁶ cm/s. For the same molecule, the IC50 [15] was 173 nM, the IC50 [16] was 10400 nM and the “Clearance (in words)” value [17] was “cleared too quickly”. The “Plasma levels (in words)” value [17] was “too low”, the “% Metabolized (mean)” value [18] was 99% and the IC50 [19] was 47 nM. For the same molecule, the IC50 ([20]; Table 2A, Alamar Blue, 72 hours exposure, read-out: IC50s MDA-MB231) was 18500 nM, the IC50 ([20]; Table 2B, Breast, average, read-out: IC50 Aver, MDA-MB-231) was 18500 nM and the IC50 [21] was 240 nM. It also gave an IC50 [22] of 89700 nM.

For CCOc1ccc(-c2nnc(SCC(=O)NC3CC(C)(C)NC(C)(C)C3)[nH]2)cc1 [ACT-CK-170, 2-[5-(4-Ethoxy-phenyl)-4H-[1,2,4]triazol-3-ylsulfanyl]-N-(2,2,6,6-tetramethyl-piperidin-4-yl)-acetamide], the IC50 [1] was > 100000 nM.

In the case of CCOc1ccc(-c2nnc(SCC(=O)Nc3cccc(OC)c3)[nH]2)cc1 [ACT-CK-157, 2-[5-(4-Ethoxy-phenyl)-4H-[1,2,4]triazol-3-ylsulfanyl]-N-(3-methoxy-phenyl)-acetamide], the IC50 [1] is reported as 50000 nM.

For CCOc1ccc(-c2nnc(SCC(=O)N(C)c3cc(C)cc(C)c3)[nH]2)cc1 [ACT-CK-153, N-(3,5-Dimethyl-phenyl)-2-[5-(4-ethoxy-phenyl)-4H-[1,2,4]triazol-3-ylsulfanyl]-N-methyl-acetamide], the IC50 [1] was 30000 nM and the “% Metabolized (mean)” value [18] was 99%.
